Assay results as given in patent US20250207103A1, “CYTOCOMPATIBLE HYDROGELS AND METHODS OF MAKING AND USING THE SAME” (The Trustees of Indiana University, priority 2022, published 2025).

Legend:
CAFs = assay: effect of blebbistatin and Y-27632 on spreading of CAFs in viscoelastic hydrogels; type: cell-based, human; details: Y-27632: 10 μM; for F-actin polymerization in CAFs: blebbistatin: 40 μM, Day 15
From the text: (§1) To facilitate imaging, pancreatic cancer cells COLO-357 were stably transduced with mKate2, a red fluorescent protein (RFP), using INCUCYTE® Cytolight Lentivirus reagent, followed by puromycin selection. green fluorescent protein (GFP)-labelled human pancreatic cancer associated fibroblasts (1303-GFP-49-hT, or CAF) and RFP-labelled COLO-357 (PCC) were maintained in high glucose Dulbecco's modified eagle medium (DMEM, Gibco) containing 10% Fetal bovine serum (FBS, Corning) and 1% antibiotic-antimycotic (Gibco) at 37° C. with 5% CO2. Cells were trypsinized by 0.1% trypsin-ethylenediaminetetraacetic acid (trypsin-EDTA) (Gibco) for cell encapsulation. The cell density of CAF and PCC was kept at 1.6 million/mL (M/mL) and 400 thousand/mL (k/mL), respectively, in both single-encapsulated and co-encapsulated precursor solutions. The hydrogel precursor solution was similar to the aforementioned formulations, except that 3 wt % of GelSH was included to facilitate cell proliferation. Twenty-five μL precursor solution was cured under UV light (λ=365 nm, 5 mW/cm^2) in an opened 1 mL syringe for 2 minutes. The cell-laden hydrogels were then cultured in regular cell culture media. For hydrogels treated with myosin inhibitor blebbistatin (40 μM, Peprotech) and ROCK inhibitor Y-27632 (10 μM, AdipoGen), the treated culture media was replaced daily to ensure the efficacy of inhibitors.
The cell viability of CAF in hydrogels was evaluated by staining with ethidium homodimer 3. The morphology of CAF in hydrogels was analyzed using F-actin (rhodamine phalloidin 100 nM, Cytoskeleton) and 4′,6-diamidino-2-phenylindole (DAPI) (1:1000, Anaspec) stained images. In the co-encapsulated hydrogels, cells were stained using F-actin (Actin stain 670 phalloidin 200 nM, Cytoskeleton) and DAPI (1:1000). The confocal images (Olympus Fluoview FV100 laser scanning microscope) were z-stacked from 5 μm slices over 100 μm in total.

PCCs/CAFs = assay: effect of blebbistatin and Y-27632 on PCCs/CAFs encapsulated in viscoelastic hydrogels; type: cell-based, human; details: blebbistatin: 40 μM, Y-27632: 10 μM, Day 15
From the text: as §1, with “The cell-laden hydrogels were then cultured in regular cell culture media. For hydrogels treated with myosin inhibitor blebbistatin (40 μM, Peprotech) and ROCK inhibitor Y-27632 (10 μM, AdipoGen), the treated culture media was replaced daily to ensure the efficacy of inhibitors.” left out
The cell viability of CAF in hydrogels was evaluated by staining with ethidium homodimer 3. The morphology of CAF in hydrogels was analyzed using F-actin (rhodamine phalloidin 100 nM, Cytoskeleton) and 4′,6-diamidino-2-phenylindole (DAPI) (1:1000, Anaspec) stained images. […]

Compound	cell morphology of CAFs (CAFs)	F-actin polymerization in CAFs (CAFs)	invasive phenotype of PCC cells in co-culture (PCCs/CAFs)
C[C@@H](N)[C@H]1CC[C@H](C(=O)Nc2ccncc2)CC1 [Y-27632]	more obvious dendritic extensions of cells	disrupted F-actin polymerization	neither the addition of blebbistatin nor Y-27632 altered invasive phenotype
Cc1ccc2c(c1)C(=O)C1(O)CCN(c3ccccc3)C1=N2 (centres unmarked) [blebbistatin]		disrupted F-actin polymerization	neither the addition of blebbistatin nor Y-27632 altered invasive phenotype
